Reference: publication PMC9197883, “Treatment with Polyethylene Glycol–Conjugated Fungal D-Amino Acid Oxidase Reduces Lung Inflammation in a Mouse Model of Chronic Granulomatous Disease” (Inflammation, 2022)

Assays:
fDAO / PEG-fDAO = system: T1, fDAO / PEG-fDAO; assay: HRP-coupled o-dianisidine assay of H2O2 formation, nonlinear fit; type: biochemical; conditions: pH 6.5; 25 °C; enzyme form not stated beside the value, most likely PEG-conjugated (PEG-fDAO)
T1 construct: gene DAO; DAO from Fusarium spp. supplied by Ikeda Food Research; tetramer 165 kDa; PEG conjugate (five PEG chains, succinimide-PEG ME-020CS) 206 kDa

[1] = biological target: D-amino acid oxidase isolated from Fusarium spp. (Fusarium spp.) (UniProt P24552); assay: not stated; fDAO in 'the physiological solution used for testing'; how the oligomeric state was found is not told

Row | stoichiometry N [1] | Molecule | Km (fDAO / PEG-fDAO) [µM]
1 |  | N[C@H](Cc1ccccc1)C(=O)O [D-phenylalanine] | 220
2 | 4 | D-amino acid oxidase isolated from Fusarium spp. (from UniProt P24552 23-361) (enzyme) | 
